# Assay results as given in patent EP2330125A2 (priority 2005, dated 2007).
# Read-outs that look alike come from different tables or passages of the source.
# Tests used:
# [1] = format: in vivo, C57BL/6 mice; conditions: mouse DIO
# Description: An exemplary assay can be one that involves utilization of a diet-induced obese (DIO) mouse model for metabolic disease. […] During the study, the mice can continue to eat their high-fat diet Water can be provided ad libitum throughout the study.
# DIO mice can be implanted with subcutaneous (SC) intrascapular osmotic pumps to deliver either vehicle (50% dimethylsulfoxide (DMSO) in water) or a compound of the invention.
# Body weights and food intake can be measured over regular intervals throughout the study periods. Respiratory quotient (RQ, defined as CO2 production ÷ O2 consumption) and metabolic rate can be determined using whole-animal indirect calorimetry (Oxymax, Columbus Instruments, Columbus, OH). The mice can be euthanized by isoflurane overdose, and an index of adiposity (bilateral epididymal fat pad weight) measured. Moreover, prior to determination of epididymal weight, body composition (lean mass, fat mass) for each mouse can be analyzed using a Dual Energy X-ray Absorptiometry (DEXA) instrument per manufacturer's instructions (Lunar Piximus, GE Imaging System).
# [2] = format: in vivo, NIH/Swiss mice; parameters: key to percent inhibition of food intake: "ns" means "not significant" compared to vehicle
# Protocol: For studies of the effects of PPF polypeptides on longer-term (chronic) food intake and/or body composition, the amount of food consumed over a period of two weeks was measured. For these studies of the effects of PPF polypeptides on longer-term food intake and/or body composition, mice were housed singly for 1 week prior to the beginning of treatment. Throughout the experiments, food intake and body weight were monitored daily. […] At the end of each study, animals were sacrificed after a 2-4 hr fast by isoflurane overdose. Blood was collected into Na-heparin-flushed syringes by cardiac puncture, and plasma was immediately frozen. In some studies, body composition was determined using dual-energy X-ray absorptiometry (DEXA; PixiMus, GE Lunar). In some studies, body composition (such as the amounts of fat and protein) were measured pre- and post treatment using a rodent NMR machine (EchoMRI-700™), in which animals are placed in a restraining tube and placed in the NMR for 2 minutes, and the amount of fat and lean mass, in grams, is quantified.
# [3] = format: in vivo, Sprague-Dawley rat (Levin DIO rats); conditions: for percent inhibition of body weight: rat DIO
# Protocol: (§1) DIO male rats are obtained from Charles River Laboratories, Inc. (Wilmington, MA). […] The animals typically achieve a mean body weight of about 500 g. Levin DIO rats are habituated to caging environment for 7 days. During the 3 nights of habituation, animals receive a single intraperitoneal (IP) injection of vehicle. […] Food intake is measured by an automated food intake measuring system (BioDAQ, Research Diets) at 5 sec intervals throughout the course of the study. Body weight is recorded nightly.
# Body composition was measured prior to and after drug treatment using NMR (Echo Medical Systems, Houston, TX). For body composition measurements, rats are briefly placed (~1 min) in a well-ventilated plexiglass tube that was then inserted into a specialized rodent NMR machine. This enabled the calculation of changes in actual grams of fat and dry lean tissue (e.g., grams of body fat after treatment -grams of body fat at baseline = change in grams of body fat) and changes in % body composition for fat and dry lean tissue (e.g., % body fat after treatment -% body fat at baseline = change in % body fat). All data are represented as mean ± SEM. Analysis of variance (ANOVA) and post-hoc tests were used to test for group difference. […] Graphs and results are typically presented as vehicle-corrected changes in percent body weight, body fat and changes in body protein
# Values are as provided as percent inhibition of body weight after infusion for the time periods indicated.
# [4] = Gastric emptying (acetaminophen passed); format: in vivo, Levin rats
# Description: Values are given as percent inhibition of gastric emptying and percent acetaminophen passed.
# calcitonin receptor = format: binding
# GLP Receptor = format: biochemical
# [5] = format: in vivo, Levin rats
# Description: Values are given as percent reduction of blood glucose level.
# [6] = rat, in vivo
# Protocol: as §1
# Values are given as percent inhibition of body weight.
# Values are given as percent inhibition of body weight. […] Body Weight: ∼2% difference is statistically significant.
# [7] = rat, in vivo; remark: listed apart in the source
# Protocol: as §1
# Values are given as percent inhibition of body weight. […] Body Weight: ∼2% difference is statistically significant. Food Intake: ∼20% difference is statistically significant.
# [8] = infusions in normal men; cited from earlier work
# CT receptor = target: T1, CT receptor (Rattus norvegicus, UniProt P32214); format: cell-based
# T1 construct: host or cells: 'C1A' (not explained)
# T1 sequence (P32214 25-479 isoform P32214-2 limits assumed): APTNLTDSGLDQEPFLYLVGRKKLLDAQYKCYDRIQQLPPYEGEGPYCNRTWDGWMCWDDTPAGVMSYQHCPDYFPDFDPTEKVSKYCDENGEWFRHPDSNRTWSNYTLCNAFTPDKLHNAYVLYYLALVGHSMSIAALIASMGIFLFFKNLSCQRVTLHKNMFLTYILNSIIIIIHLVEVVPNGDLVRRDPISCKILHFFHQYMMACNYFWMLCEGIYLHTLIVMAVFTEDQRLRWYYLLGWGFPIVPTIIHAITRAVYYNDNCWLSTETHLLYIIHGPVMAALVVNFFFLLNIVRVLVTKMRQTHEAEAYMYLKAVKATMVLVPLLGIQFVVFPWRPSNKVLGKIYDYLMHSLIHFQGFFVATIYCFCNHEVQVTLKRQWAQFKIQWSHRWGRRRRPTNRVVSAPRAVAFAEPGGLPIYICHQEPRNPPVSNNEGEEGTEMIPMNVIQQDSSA
# CGRP receptors = target: T2, CGRP receptors (Homo sapiens, UniProt O60894+Q16602); format: binding
# T2 construct: SK-N-MC and L6 cells expressing endogenous CGRP receptors; endogenous in cells; host or cells: SK-N-MC cell membranes
# T2 sequence (Q16602 23-461): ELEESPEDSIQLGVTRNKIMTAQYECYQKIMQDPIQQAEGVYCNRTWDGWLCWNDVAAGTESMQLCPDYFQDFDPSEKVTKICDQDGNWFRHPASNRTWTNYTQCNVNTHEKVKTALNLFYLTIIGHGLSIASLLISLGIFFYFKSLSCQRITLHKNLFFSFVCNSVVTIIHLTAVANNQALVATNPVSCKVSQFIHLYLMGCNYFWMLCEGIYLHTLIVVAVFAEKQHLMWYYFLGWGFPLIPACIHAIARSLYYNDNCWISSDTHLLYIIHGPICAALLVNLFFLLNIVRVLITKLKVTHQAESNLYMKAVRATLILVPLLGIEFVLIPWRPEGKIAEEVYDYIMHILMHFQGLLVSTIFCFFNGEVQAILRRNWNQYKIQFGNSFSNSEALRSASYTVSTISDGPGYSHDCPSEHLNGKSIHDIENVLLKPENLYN
# T2 sequence (O60894 27-148 partner): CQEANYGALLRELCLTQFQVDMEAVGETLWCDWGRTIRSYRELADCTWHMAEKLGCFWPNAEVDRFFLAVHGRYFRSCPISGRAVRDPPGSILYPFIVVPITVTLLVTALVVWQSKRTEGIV
substance,measurement,setting,value
KCNTATCATQRLANFLVRSSNNLGPVLPPTNVGSNTY [rat amylin],percent inhibition of body weight,"[1]; infusion 30 nmol/kg/d, Day 2",1.9%
same,percent inhibition of body weight,"[1]; infusion 30 nmol/kg/d, Day 7",1.5%
same,percent inhibition of body weight,"[1]; infusion 30 nmol/kg/d, Day 14",2.1%
same,percent inhibition of body weight,"[1]; infusion 30 nmol/kg/d, Day 21",2.5%
same,percent inhibition of body weight,"[1]; infusion 30 nmol/kg/d, Day 28",2.2%
same,percent inhibition of body weight,"[1]; infusion 75 nmol/kg/d, Day 2",1.5%
same,percent inhibition of body weight,"[1]; infusion 75 nmol/kg/d, Day 7",1.4%
same,percent inhibition of body weight,"[1]; infusion 75 nmol/kg/d, Day 14",2.1%
same,percent inhibition of body weight,"[1]; infusion 100 nmol/kg/d, Day 2",1.6%
same,percent inhibition of body weight,"[1]; infusion 100 nmol/kg/d, Day 7",1.8%
same,percent inhibition of body weight,"[1]; infusion 100 nmol/kg/d, Day 14",3.1%
same,percent inhibition of body weight,"[1]; infusion 100 nmol/kg/d, Day 21",3.8%
same,percent inhibition of body weight,"[1]; infusion 100 nmol/kg/d, Day 28",4.4%
same,percent inhibition of body weight,"[1]; infusion 100 nmol/kg/d, Day 35",6.9%
same,percent inhibition of body weight,"[1]; infusion 100 nmol/kg/d, Day 42",8.6%
same,percent inhibition of body weight,"[1]; infusion 100 nmol/kg/d, Day 49",9.6%
same,percent inhibition of body weight,"[1]; infusion 100 nmol/kg/d, Day 63",10.3%
same,percent inhibition of body weight,"[1]; infusion 100 nmol/kg/d, Day 70",11.4%
same,percent inhibition of body weight,"[1]; infusion 100 nmol/kg/d, Day 77",12%
same,percent inhibition of body weight,"[1]; infusion 100 nmol/kg/d, Day 84",13.4%
same,percent inhibition of body weight,"[1]; infusion 300 nmol/kg/d, Day 2",1.1%
same,percent inhibition of body weight,"[1]; infusion 300 nmol/kg/d, Day 7",-0.7%
same,percent inhibition of body weight,"[1]; infusion 300 nmol/kg/d, Day 14",-0.9%
same,percent inhibition of body weight,"[1]; infusion 300 nmol/kg/d, Day 21",-1.5%
same,percent inhibition of body weight,"[1]; infusion 300 nmol/kg/d, Day 28",-1.5%
same,percent inhibition of food intake,"[2]; 25 nmol/kg, 30 min",46%
same,percent inhibition of food intake,"[2]; 25 nmol/kg, 60 min",35%
same,percent inhibition of food intake,"[2]; 25 nmol/kg, 120 min",21%
same,percent inhibition of food intake,"[2]; 25 nmol/kg, 180 min",17%
same,percent inhibition of food intake,"[2]; 25 nmol/kg, 240 min",7%
same,percent inhibition of food intake,"[2]; 250 nmol/kg, 30 min",70%
same,percent inhibition of food intake,"[2]; 250 nmol/kg, 60 min",53%
same,percent inhibition of food intake,"[2]; 250 nmol/kg, 120 min",38%
same,percent inhibition of food intake,"[2]; 250 nmol/kg, 180 min",30%
same,percent inhibition of food intake,"[2]; 300 nmol/kg, 30 min",88%
same,percent inhibition of food intake,"[2]; 300 nmol/kg, 60 min",90%
same,percent inhibition of food intake,"[2]; 300 nmol/kg, 120 min",51%
same,percent inhibition of food intake,"[2]; 300 nmol/kg, 180 min",21%
same,60 min ED50,"[2]; Mouse Food Intake, 60 min",9 nmol/kg
same,percent inhibition of body weight,"[3]; infusion 0.7 nmol/kg/d, Day 7",1.6%
same,percent inhibition of body weight,"[3]; infusion 0.7 nmol/kg/d, Day 14",1.3%
same,percent inhibition of body weight,"[3]; infusion 0.7 nmol/kg/d, Day 21",1.6%
same,percent inhibition of body weight,"[3]; infusion 0.7 nmol/kg/d, Day 28",2.1%
same,percent inhibition of body weight,"[3]; infusion 7 nmol/kg/d, Day 7",5.7%
same,percent inhibition of body weight,"[3]; infusion 7 nmol/kg/d, Day 14",7.3%
same,percent inhibition of body weight,"[3]; infusion 7 nmol/kg/d, Day 21",7.9%
same,percent inhibition of body weight,"[3]; infusion 7 nmol/kg/d, Day 28",8.3%
same,percent inhibition of body weight,"[3]; infusion 18.4 nmol/kg/d, Day 7",5.9%
same,percent inhibition of body weight,"[3]; infusion 18.4 nmol/kg/d, Day 14",7.5%
same,percent inhibition of body weight,"[3]; infusion 18.4 nmol/kg/d, Day 21",6.7%
same,percent inhibition of body weight,"[3]; infusion 18.4 nmol/kg/d, Day 28",6.5%
same,percent inhibition of body weight,"[3]; infusion 23 nmol/kg/d, Day 7",7.8%
same,percent inhibition of body weight,"[3]; infusion 23 nmol/kg/d, Day 14",9.4%
same,percent inhibition of body weight,"[3]; infusion 23 nmol/kg/d, Day 21",8.8%
same,percent inhibition of body weight,"[3]; infusion 23 nmol/kg/d, Day 28",8.8%
same,percent inhibition of body weight,"[3]; infusion 23 nmol/kg/d, Day 35",9.5%
same,percent inhibition of body weight,"[3]; infusion 23 nmol/kg/d, Day 42",10%
same,percent inhibition of body weight,"[3]; infusion 23 nmol/kg/d, Day 49",9.8%
same,percent inhibition of body weight,"[3]; infusion 23 nmol/kg/d, Day 56",9.1%
same,percent inhibition of body weight,"[3]; infusion 69 nmol/kg/d, Day 7",7.6%
same,percent inhibition of body weight,"[3]; infusion 69 nmol/kg/d, Day 14",9.3%
same,percent inhibition of body weight,"[3]; infusion 69 nmol/kg/d, Day 21",11.1%
same,percent inhibition of body weight,"[3]; infusion 69 nmol/kg/d, Day 28",12.2%
same,percent inhibition of body weight,"[3]; infusion 69 nmol/kg/d, Day 49",15.4%
same,percent inhibition of body weight,"[3]; infusion 69 nmol/kg/d, Day 56",15.7%
same,percent inhibition of body weight,"[3]; infusion 69 nmol/kg/d, Day 63",16.2%
same,percent inhibition of body weight,"[3]; infusion 69 nmol/kg/d, Day 70",15.8%
same,percent inhibition of body weight,"[3]; infusion 70 nmol/kg/d, Day 7",7.6%
same,percent inhibition of body weight,"[3]; infusion 70 nmol/kg/d, Day 14",8.9%
same,percent inhibition of body weight,"[3]; infusion 70 nmol/kg/d, Day 21",10.2%
same,percent inhibition of body weight,"[3]; infusion 70 nmol/kg/d, Day 28",11.8%
same,%inhibition of gastric emptying,"[4]; 69 nmol/kg/d, 21 days on study",45%
same,%passed (acetaminophen),"[4]; 69 nmol/kg/d, 21 days on study",55%
same,%inhibition of gastric emptying,"[4]; 100 µg/kg/d, 26 days on study",24%
same,%passed (acetaminophen),"[4]; 100 µg/kg/d, 26 days on study",76%
same,IC50,calcitonin receptor; read-out: Receptor Binding CT,3 nM
same,EC50,GLP Receptor; read-out: Receptor Activation GLP-1/GIP/CT cyclase,5 nM
same,"%Reduction of blood glucose, OGTT, 30","[5]; 23 nmol/kg/d, day 26",2.3%
same,"%Reduction of blood glucose, OGTT, 60","[5]; 23 nmol/kg/d, day 26",19.2%
same,"%Reduction of blood glucose, OGTT, 120","[5]; 23 nmol/kg/d, day 26",2.1%
same,"%Reduction of blood glucose, OGTT, Basal","[5]; 23 nmol/kg/d, day 26",4%
same,"%Reduction of blood glucose, OGTT, 15","[5]; 69 nmol/kg/d, day 14",-0.2%
same,"%Reduction of blood glucose, OGTT, 30","[5]; 69 nmol/kg/d, day 14",11%
same,"%Reduction of blood glucose, OGTT, 60","[5]; 69 nmol/kg/d, day 14",5.9%
same,"%Reduction of blood glucose, OGTT, 120","[5]; 69 nmol/kg/d, day 14",1.2%
same,"%Reduction of blood glucose, OGTT, Basal","[5]; 69 nmol/kg/d, day 14",6%
Amylin,1 Wk BW Loss,[6],0%
same,FI Iinhib @ 8 hr,[7],0%
same,1 Wk BW Loss,"[3]; rat, in vivo",6%
DF(P-CH2SO3)MGWNMFGKR KCNTATCATQRLANELVRLQTYPRTNVGSNTY [SEQ ID NO: 398],IC50,GLP Receptor; read-out: IC50 in a GLP Receptor cyclase (RIN) assay,1000 nM
brain natriuretic peptide [BNP],increase in sodium excretion,[8],2 fold
same,"reduction in plasma renin, angiotensin II and aldosterone secretion",[8],50%
"[Ser117, dLeu119]leptin(116-122)-Amylin(1-7)-[^11,18Arg]sCT(8-27)-Amylin(33-37) [Compound 16]",activation of the CT receptor (C1A assay),CT receptor,able to activate
same,binding to the CGRP receptor (RBA = receptor binding assay),CGRP receptors,some binding
same,"cumulative intake, % that of controls","[2]; mouse, in vivo",34-38%
same,binding to the CT receptor (RBA = receptor binding assay),calcitonin receptor,bound
CCK8,percent inhibition of food intake,"[2]; mouse, in vivo",ns
